For 27 compounds, IC50 results are on record in US11279712B2, “Macrocyclic compounds that inhibit MCL-1 protein” (AMGEN INC., priority 2017, dated 2022).

Assay [1] has as its target Mcl-1/Bim interaction (recombinant human Mcl-1 residues 171-327) (Homo sapiens (Human), UniProt Q07820). As to the kind of experiment: Cell Free Mcl-1:Bim Affinity Assay (Mcl-1 HTRF). The format is binding. Conditions: TR-FRET, 0.1 nM Mcl-1(171-327), 0.05 nM biotin-Bim(51-76). The protocol: Cell Free Mcl-1:Bim Affinity Assay (Mcl-1 HTRF)
The inhibition of the Mcl-1/Bim interaction was measured using a time-resolved fluorescence resonance energy transfer (TR-FRET) assay. The recombinant human Mcl-1 (C-terminally 6×His tagged Mcl-1 containing residues 171-327) was generated at Amgen Inc (Thousand Oaks, Calif.). A biotinylated peptide derived from human Bim (residues 51-76) was purchased from CPC Scientific (San Jose, Calif.). The TR-FRET assay was conducted in a 384-well white OptiPlate™ (PerkinElmer, Waltham, Mass.) in a total volume of 40 μL. The reaction mixture contained 0.1 nM Mcl-1(171-327), 0.05 nM biotin-Bim(51-76), 0.05 nM LANCES Eu-W1024 Anti-6×His (PerkinElmer), 0.072 nM Streptavidin-Xlent (Cisbio, Bedford, Mass.), and serially diluted test compounds in the binding buffer of 20 mM Hepes, pH 7.5, 150 mM NaCl, 0.016 mM Brij®35, and 1 mM dithiothreitol. Test compounds were pre-incubated with Mcl-1(171-327) and biotin-Bim (51-76) for 60 min before addition of the detection mixture (LANCE® Eu-W1024 Anti-6×His and Streptavidin-Xlent). The reaction plates were further incubated overnight and then were read on an Envision® multimode reader (PerkinElmer). Fluorescence signals were measured at 620 nm (40-nm bandwidth) and 665 nm (7.5-nm bandwidth) with a 60 μs delay after excitation at 320 nm (75-nm bandwidth). The signal ratio at 665/620 nm corresponded to the Mcl-1/Bim interaction and was used in all data analyses. The IC50 values of test compounds were determined from duplicate data by analyzing competition curves using a four-parameter sigmoidal model in GraphPad Prism (GraphPad Software, San Diego, Calif.) or in Genedata Screener® (Genedata, Basel, Switzerland).

Assay [2] deals with OPM-2 human multiple myeloma cell line. The experiment in a line: Cell Viability Assay (OPM-2 10 FBS). It counts as cell-based. Conditions: OPM-2 cells, CellTiter-Glo, read-out: OPM-2 10% FBS IC50 IP. As to the method:
Cell Viability Assay (OPM-2 10 FBS)
The human multiple myeloma cell line, OPM-2, was cultured in complete growth medium containing RPMI 1640 and 10% fetal bovine serum (FBS). Cells were seeded into 384-well plates at 3000 cells/well density in complete growth medium containing 10% FBS, and incubated for 16 h with serially diluted test compounds in a 37° C. incubator with 5% CO2. Cell viability was tested using CellTiter-Glo® assay (Promega, Madison, Wis.) according to the manufacturer recommendations. Luminescence was determined using an EnVision® Multilabel plate reader 25 min after the addition of detection reagent. IC50 values were then calculated with Xlfit using a logistical 4-parameter fit model in GraphPad Prism (GraphPad Software, San Diego, Calif.) or in Genedata Screener® (Genedata, Basel, Switzerland).
Background: In ATP-based viability assays light output follows the ATP content of the culture.

Each structure is given as a SMILES string. Like-named read-outs stand apart in the source and are kept apart here. Some results are limits rather than exact numbers.

The term IC50 denotes the concentration that gives 50% inhibition.

Sequence of Mcl-1/Bim interaction (recombinant human Mcl-1 residues 171-327) (Q07820 171-327): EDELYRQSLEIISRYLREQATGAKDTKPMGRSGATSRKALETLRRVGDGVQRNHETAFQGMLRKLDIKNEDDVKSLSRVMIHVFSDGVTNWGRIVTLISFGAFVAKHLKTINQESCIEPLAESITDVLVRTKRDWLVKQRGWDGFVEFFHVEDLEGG

Regarding `CC[C@@H]1CCCC[C@H](CO)[C@@H]2CC[C@H]2CN2C[C@@]3(CCCc4cc(Cl)ccc43)COc3ccc(cc32)C(=O)NS1(=O)=O` (single isomer, unassigned) [Example 71], the IC50 in assay [1] was 0.359 nM; in assay [2] (16 h), 1950 nM.

With `C[C@H]([C@H]1CCC[C@H](C)[C@@H](C)S(=O)(=O)NC(=O)c2ccc3c(c2)N(C[C@@H]2CC[C@H]21)C[C@@]1(CCCc2cc(Cl)ccc21)CO3)N1CCOCC1` (single isomer, unassigned) [Example 72], the IC50 in assay [1] was 0.849 nM; in assay [2] (16 h), 1990 nM.

Turning to `C[C@@H]1[C@@H](C)CCC[C@H](C)[C@@H]2CC[C@H]2CN2C[C@@]3(CCCc4cc(Cl)ccc43)COc3ccc(cc32)C(=O)NS1(=O)=O` (single isomer, unassigned) [Example 73], the IC50 in assay [1] came out at 7.41 nM; in assay [2] (16 h) it was 17000 nM.

With `C[C@@H]1[C@@H](C)CCC[C@H]([C@@H](C)O)[C@@H]2CC[C@H]2CN2C[C@@]3(CCCc4cc(Cl)ccc43)COc3ccc(cc32)C(=O)NS1(=O)=O` (single isomer, unassigned) [Example 74], the values for the IC50 in assay [1] and in assay [2] (16 h) were 3.67 nM and 2040 nM, respectively.

Consider `CC[C@@H](O)[C@@H]1/C=C/C[C@H](C)[C@@H](C)S(=O)(=O)NC(=O)c2ccc3c(c2)N(C[C@@H]2CC[C@H]21)C[C@@]1(CCCc2cc(Cl)ccc21)CO3` (single isomer, unassigned) [Example 75], for which the IC50 was 0.808 nM in assay [1] and 2440 nM in assay [2] (16 h).

Take `C[C@@H]1[C@@H](C)CCC[C@H](C(=O)O)[C@@H]2CC[C@H]2CN2C[C@@]3(CCCc4cc(Cl)ccc43)COc3ccc(cc32)C(=O)NS1(=O)=O` (single isomer, unassigned) [Example 77]: the IC50 in assay [1] was found to be 0.442 nM; in assay [2] (16 h), 20700 nM.

Consider `C[C@@H]1[C@@H](C)CCC[C@H]([C@H](O)c2ccccc2)[C@@H]2CC[C@H]2CN2C[C@@]3(CCCc4cc(Cl)ccc43)COc3ccc(cc32)C(=O)NS1(=O)=O` (single isomer, unassigned) [Example 78], for which the half-maximal inhibitory concentration (IC50) is 2.36 nM in assay [1] and 28300 nM in assay [2] (16 h).

Consider `C[C@H]([C@H]1CCC[C@H](C)[C@@H](C)S(=O)(=O)NC(=O)c2ccc3c(c2)N(C[C@@H]2CC[C@H]21)C[C@@]1(CCCc2cc(Cl)ccc21)CO3)N1CCOCC1` (single isomer, unassigned) [Example 79], for which the results for the IC50 in assay [1] and in assay [2] (16 h) were 1.59 nM and 3000 nM, respectively.

As for `COC[C@H]1CCC[C@H](C)[C@@H](C)S(=O)(=O)NC(=O)c2ccc3c(c2)N(C[C@@H]2CC[C@@H]12)C[C@@]1(CCCc2cc(Cl)ccc21)CO3` (single isomer, unassigned) [Example 80], the IC50 in assay [1] was 1.6 nM; in assay [2] (Homo sapiens, OPM-2, 16 h) it was 3510 nM.

With `C[C@H]1CCC[C@H](CO)[C@@H]2CC[C@H]2CN2C[C@@]3(CCCc4cc(Cl)ccc43)COc3ccc(cc32)C(=O)NS(=O)(=O)C1` (single isomer, unassigned) [Example 82], the IC50 in assay [1] was 0.772 nM; in assay [2] (16 h) it was 3650 nM.

On to `C[C@@H]1[C@@H](C)CCC[C@H]([C@H](O)C2CCN(C)CC2)[C@@H]2CC[C@H]2CN2C[C@@]3(CCCc4cc(Cl)ccc43)COc3ccc(cc32)C(=O)NS1(=O)=O` (single isomer, unassigned) [Example 83], for which the IC50 stood at 0.552 nM in assay [1] and 4230 nM in assay [2] (16 h).

For `C[C@@H]1CS(=O)(=O)NC(=O)c2ccc3c(c2)N(C[C@@H]2CC[C@H]2[C@@H](CO)CC[C@@H]1C)C[C@@]1(CCCc2cc(Cl)ccc21)CO3` (single isomer, unassigned) [Example 84], the IC50 in assay [1] was 3.43 nM; in assay [2] (16 h), 5840 nM.

Regarding `CC[C@@H]1CCCC[C@H](CO)[C@@H]2CC[C@H]2CN2C[C@@]3(CCCc4cc(Cl)ccc43)COc3ccc(cc32)C(=O)NS1(=O)=O` (single isomer, unassigned) [Example 85], the IC50 in assay [1] was 0.676 nM; in assay [2] (16 h), 7130 nM.

`C[C@@H]1[C@@H](C)CCC[C@@H]([C@H](O)C(F)(F)F)[C@@H]2CC[C@H]2CN2C[C@@]3(CCCc4cc(Cl)ccc43)COc3ccc(cc32)C(=O)NS1(=O)=O` (single isomer, unassigned) [Example 86]: the IC50 in assay [1] came out at 27.5 nM; in assay [2] (16 h) it was 9230 nM.

Consider `C[C@@H]1[C@@H](C)CCC[C@@H]([C@@H](O)C(F)(F)F)[C@@H]2CC[C@H]2CN2C[C@@]3(CCCc4cc(Cl)ccc43)COc3ccc(cc32)C(=O)NS1(=O)=O` (single isomer, unassigned) [Example 87], for which the results for the IC50 in assay [1] and in assay [2] (16 h) were 13.3 nM and 9890 nM, respectively.

As for `C[C@@H]1[C@@H](C)CCC[C@@H]([C@@H](O)c2ccccc2)[C@@H]2CC[C@H]2CN2C[C@@]3(CCCc4cc(Cl)ccc43)COc3ccc(cc32)C(=O)NS1(=O)=O` (single isomer, unassigned) [Example 88], the IC50 in assay [1] is 11.4 nM; in assay [2] (16 h), more than 33300 nM.

For the compound `C[C@@H]1[C@@H](C)CCC[C@H](C)[C@@H]2CC[C@H]2CN2C[C@@]3(CCCc4cc(Cl)ccc43)COc3ccc(cc32)C(=O)NS1(=O)=O` (single isomer, unassigned) [Example 89], the values for the IC50 in assay [1] and in assay [2] (16 h) were 14.2 nM and more than 33300 nM, respectively.

With `COCCN1CCN(C[C@H]2CCC[C@H](C)[C@@H](C)S(=O)(=O)NC(=O)c3ccc4c(c3)N(C[C@@H]3CC[C@@H]23)C[C@@]2(CCCc3cc(Cl)ccc32)CO4)CC1=O` (stereo in doubt) [Example 3], the IC50 was determined as 0.257 nM in assay [1] and 166 nM in assay [2] (Homo sapiens, OPM-2, 16 h).

Regarding `C[C@@H]1[C@@H](C)CCC[C@H](CN2CCN3CCOC[C@H]3C2)[C@@H]2CC[C@H]2CN2C[C@@]3(CCCc4cc(Cl)ccc43)COc3ccc(cc32)C(=O)NS1(=O)=O` (stereo in doubt) [Example 14], the 50% inhibitory concentration (IC50) in assay [1] was determined as 0.291 nM; in assay [2] (Homo sapiens, OPM-2, 16 h) it was 268 nM.

With `C[C@@H]1[C@@H](C)CCC[C@H](CN2CC(N(C)C)C2)[C@@H]2CC[C@H]2CN2C[C@@]3(CCCc4cc(Cl)ccc43)COc3ccc(cc32)C(=O)NS1(=O)=O` (stereo in doubt) [Example 18], the IC50 was 0.84 nM in assay [1] and 289 nM in assay [2] (16 h).

In the case of `C[C@@H]1[C@@H](C)CCC[C@H](CN2CCN3CCN(S(C)(=O)=O)C[C@@H]3C2)[C@@H]2CC[C@H]2CN2C[C@@]3(CCCc4cc(Cl)ccc43)COc3ccc(cc32)C(=O)NS1(=O)=O` (stereo in doubt) [Example 20], the IC50 in assay [1] was found to be 1.16 nM; in assay [2] (Homo sapiens, OPM-2, 16 h) it was 304 nM.

Consider `CC(=O)N1CCN2CCN(C[C@H]3CCC[C@H](C)[C@@H](C)S(=O)(=O)NC(=O)c4ccc5c(c4)N(C[C@@H]4CC[C@@H]34)C[C@@]3(CCCc4cc(Cl)ccc43)CO5)C[C@H]2C1` (stereo in doubt) [Example 25], for which the IC50 in assay [1] was 0.252 nM; in assay [2] (16 h), 329 nM.

As to `C[C@@H]1[C@@H](C)CCC[C@H](CN2CC(C)(N(C)C)C2)[C@@H]2CC[C@H]2CN2C[C@@]3(CCCc4cc(Cl)ccc43)COc3ccc(cc32)C(=O)NS1(=O)=O` (stereo in doubt) [Example 27], the concentration for half-maximal inhibition (IC50) in assay [1] came out at 0.83 nM; in assay [2] (16 h) it was 356 nM.

For the compound `C[C@@H]1[C@@H](C)CCC[C@H](CC(=O)N(C)C)[C@@H]2CC[C@H]2CN2C[C@@]3(CCCc4cc(Cl)ccc43)COc3ccc(cc32)C(=O)NS1(=O)=O` (stereo in doubt) [Example 28], the IC50 in assay [1] was determined as 0.287 nM; in assay [2] (Homo sapiens, OPM-2, 16 h), 364 nM.

Consider `C[C@@H]1[C@@H](C)CCC[C@H](CN2CCN3CCN(S(C)(=O)=O)C[C@@H]3C2)[C@@H]2CC[C@H]2CN2C[C@@]3(CCCc4cc(Cl)ccc43)COc3ccc(cc32)C(=O)NS1(=O)=O` (stereo in doubt) [Example 30], for which the results for the IC50 in assay [1] and in assay [2] (16 h) were 0.516 nM and 370 nM, respectively.

Take `C[C@@H]1[C@@H](C)CCC[C@H](CN2CCN3CCOC[C@@H]3C2)[C@@H]2CC[C@H]2CN2C[C@@]3(CCCc4cc(Cl)ccc43)COc3ccc(cc32)C(=O)NS1(=O)=O` (stereo in doubt) [Example 32]: the IC50 is 0.493 nM in assay [1] and 380 nM in assay [2] (16 h).

With `CC(=O)N1CCN(C[C@H]2CCC[C@H](C)[C@@H](C)S(=O)(=O)NC(=O)c3ccc4c(c3)N(C[C@@H]3CC[C@@H]23)C[C@@]2(CCCc3cc(Cl)ccc32)CO4)CC1` (stereo in doubt) [Example 33], the IC50 in assay [1] turned out to be 0.172 nM; in assay [2] (16 h), 411 nM.
